The target of experiment [1] is T1, human TAS2R7 E264^7.32K mutant (Homo sapiens, UniProt Q9NYW3, E264K).
T1 construct: signal peptide: first 45 amino acid residues of rat somatostatin receptor 3 (N); expressed in transfected cells; host or cells: HEK293 PEAKrapid (ATCC CRL-2828), transient, co-transfected with Gα16-gust44
T1 sequence (Q9NYW3 1-318 E264K): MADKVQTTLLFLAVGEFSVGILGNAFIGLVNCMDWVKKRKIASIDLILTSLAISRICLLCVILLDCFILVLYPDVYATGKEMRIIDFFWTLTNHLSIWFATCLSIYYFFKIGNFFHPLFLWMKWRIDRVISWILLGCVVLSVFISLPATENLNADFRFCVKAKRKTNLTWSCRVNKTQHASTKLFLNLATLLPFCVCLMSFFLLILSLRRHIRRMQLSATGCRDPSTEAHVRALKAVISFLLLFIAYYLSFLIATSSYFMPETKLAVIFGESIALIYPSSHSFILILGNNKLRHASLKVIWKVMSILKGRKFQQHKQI
Nature of the experiment: Calcium mobilization assay, TAS2R7 mutant E264K. Particulars: 20 mM metal ions except 0.16 mM Al2(SO4)3; cromolyn 10 mM; Figure 6B. It counts as cell-based. An excerpt:
(§1) The coding sequences of human TAS2Rs were amplified from human genomic DNA, then subcloned into pcDNA3.1(+) vector, with the herpes simplex virus glycoprotein D epitope (HSV) at the C-terminal and a signal peptide consisting of the first 45 amino acid residues of the rat somatostatin receptor 3 at the N-terminal, essentially as described previously ([Bufe et al. 2002]). Point mutations in human TAS2R7 (NCBI Reference Sequence: NP_076408.1) were constructed by site-directed mutagenesis. All the constructs were confirmed by Sanger sequencing.
(§2) Human embryonic kidney 293 (PEAKrapid, ATCC # CRL-2828) cells were cultured in Opti-MEM medium with 4% fetal bovine serum. One day before transfection, cells were seeded on a 96-well plate at a density of 25 000 per well. Cells were then transiently transfected with a TAS2R construct (0.1 µg/well) along with a G protein Gα16-gust44 (0.1 µg/well) construct by Lipofectamine 2000 (0.5 µl/well). For controls, only Gα16-gust44 was used (mock transfection). Twenty-four hours after transfection, cells were washed with HBSS including 10 mM HEPES and loaded with Fluo-4 in the dark for 1 h. After incubation, cells were washed 2 times with HBSS (including 10 mM HEPES), incubated in the dark for another 30 min, and then washed with assay solution once more before running the assay using a FlexStation III reader. Relative fluorescence units (excitation at 494 nm, emission at 516 nm, and auto cutoff at 515 nm) were read every 2 s for 2 min. Calcium mobilization traces were recorded.
(§3) Calcium mobilization traces were raw data obtained from single wells. Changes in fluorescence (ΔF) were calculated as the peak fluorescence minus baseline fluorescence ([Lei et al. 2015]). The calcium mobilization was quantified as the percentage of change (ΔF) relative to baseline (F). […] Calcium mobilization traces and bar graphs along with dose-dependent plots were all generated by GraphPad Prism 7. Analysis of variance with Dunnett’s multiple comparisons test was used for statistical analysis. *P < 0.05.
To assess the importance of these residues, we performed site-directed mutagenesis. We mutated the negatively charged residues E16^1.42, E264^7.32, and E271^7.39 to Q (glutamine), K (lysine), or L (leucine). The facing H94^3.37 was mutated to F (phenylalanine). HEK293 cells that expressed mutant receptors along with Gα16-gust44 were examined for their responses to metal ions (20 mM for all except 0.16 mM Al2(SO4)3) and cromolyn (10 mM, as a positive control) to assess receptor’s function. To determine the expression level of each receptor, we stained the wild-type or mutant receptor-transfected cells using an anti-HSV antibody since all the receptors are tagged with HSV at c-terminal. […]
(In general: Calcium flux is commonly read through the fluorescence of an indicator in the cells.)

Experiment [2] concerns mock-transfected HEK293 cells (Gα16-gust44 only). Nature of the experiment: Calcium mobilization assay, mock-transfected cells (Gα16-gust44 only). Type of experiment: cell-based, human. The settings on record: any concentration tested (cromolyn 10 mM). The method, then: as §2
Calcium mobilization traces were raw data obtained from single wells. Changes in fluorescence (ΔF) were calculated as the peak fluorescence minus baseline fluorescence ([Lei et al. 2015]). The calcium mobilization was quantified as the percentage of change (ΔF) relative to baseline (F). […] Calcium mobilization traces and bar graphs along with dose-dependent plots were all generated by GraphPad Prism 7. […]

Another experiment concerns the target T2, human TAS2R7 (Homo sapiens, UniProt Q9NYW3).
T2 construct: first 45 residues of rat somatostatin receptor 3 (signal peptide) (N); expressed in transfected cells; host or cells: HEK293 (PEAKrapid, ATCC CRL-2828)
T2 sequence (Q9NYW3 1-318): T1 sequence (Q9NYW3 1-318 E264K) with K264E
Nature of the experiment: Calcium mobilization assay, HEK293 cells transfected with TAS2R7 and Gα16-gust44. It counts as cell-based.
From the text: as §1
All tested compounds were purchased from Sigma–Aldrich, with the exception of diphenidol hydrochloride (Reagent World) and L-praziquantel (manufactured by Shaoxing Pharmaceutical Co. Ltd.). All the metal ions were dissolved in the assay solution (130 mM NaCl, 5 mM KCl, 2 mM CaCl2, and 10 mM glucose; pH 7.4) unless specified otherwise, and the bitter compounds (diphenidol, quinine, and chlorphenamine) were dissolved first in dimethyl sulfoxide (DMSO) as stock solution and then diluted with the assay solution; the final DMSO concentration was below 0.5%, with the exception of cromolyn, which is dissolved in the assay solution directly. For our initial screening (Table 1), Hanks’ balanced salt solution (HBSS, ThermoFisher, catalog no. 14025134) supplemented with 10 mM hydroxyethyl piperazineethanesulfonic acid (HEPES) were used as the assay buffer.
as §2, §3
To determine whether a TAS2R responds to metal ions, we expressed all 25 human bitter receptors individually in HEK293 cells (PEAKrapid) by transient transfection of a TAS2R along with a coupling chimeric G protein, Gα16-gust44. All TAS2Rs were cloned from human genomic DNA. Activation of human TAS2Rs was monitored by the calcium mobilization assay ([Lei et al. 2015]). We tested these receptors individually for their responses toward metal ions: ZnSO4 (20 mM), CuSO4 (20 mM), and MgCl2 (20 mM) (Table 1, Figure 1A). […] To determine the breadth of tuning of TAS2R7 toward metal ions, we also tested MnCl2 (20 mM), Al2(SO4)3 ([…]), and CaCl2 (20 mM) (Figure 1B).

Consider one compound from PMC6538953, “Metal Ions Activate the Human Taste Receptor TAS2R7” (Chemical Senses, 2019).

Each structure is given as a SMILES string. Substitutions are numbered along the chain they refer to. Like-named read-outs stand apart in the source and are kept apart here.

One may read the EC50 as the concentration that produces a half-maximal response. Turning to `O=C(O)c1cc(=O)c2c(OCC(O)COc3cccc4oc(C(=O)O)cc(=O)c34)cccc2o1` [cromolyn, reference compound], in experiment [1], the “Response of E264K mutant receptor” value is “reduced”. Also, the “Response of mock-transfected cells” value in experiment [2] is listed as “not”. Also, at human TAS2R7 (10 mM), the “Response of TAS2R7-transfected cells at higher dose” value was “robust response”. Further, the half-maximal effective concentration (EC50) at human TAS2R7 (Figure 4B, read-out: EC50, TAS2R7, dose-response analysis) amounted to 5.9 mM; at human TAS2R7 (assay solution containing calcium, Figures 3A, 4C, read-out: EC50, TAS2R7, in the presence of calcium), 6.67 mM; at human TAS2R7 (assay solution containing no calcium, Figures 3A, 4C, read-out: EC50, TAS2R7, in the absence of calcium), 5.22 mM. For the same compound, the “Maximal response of TAS2R7 in the absence versus presence of calcium” value at human TAS2R7 (assay solution without calcium compared with calcium) is “smaller”. Further, the “Compounds triggering detectable responses in cells transfected with TAS2R7” value at human TAS2R7 (at the concentrations reported previously (Meyerhof et al. 2010), Figure 4A) is on record as “none”.
